The source of these data is patent publication US7265152B2 (ViroPharma Incorporated, priority 2002, dated 2007).

The target in test [1] is T1, HCV NS5B (Hepatitis C virus genotype 1b, UniProt Q9WMX2).
T1 construct: fusion protein, of which the carboxyl terminal 21 amino acids were removed to enhance its solubility; His tag (GSHHHHHH); made in house; host or cells: E. coli
The test can be described thus: Inhibition of viral RNA-dependent RNA polymerase (RdRp), in vitro biochemical assay. The note with it: read-out: HCV pol-BB7 IC50. Also on record: species or system HCV genotype 1b virus (BB7). From the text: The HCV NS5B-directed RdRp activity was established and characterized in a standard in vitro biochemical assay using a purified HCV NS5B protein derived from the consensus sequence of a patient infected with HCV genotype 1b virus (BB7). (See Blight K J et al., Science. 2000, 290:1972-4). The NS5B consensus sequence was cloned and expressed in E. coli as a histidine tagged (GSHHHHHH) fusion protein, of which the carboxyl terminal 21 amino acids were removed to enhance its solubility.
In addition to evaluating their activity in the replicon assay, representative compounds within the scope of the present invention, as shown in examples 1-453 of Table 1, were also evaluated for antiviral activity using this assay. A measure of the inhibitory activity of compounds of the invention may be expressed as IC50 values. IC50 values represent the concentration of the compound at which 50% of the RdRp activity is inhibited. […] These low concentrations of test compounds required to achieve 50% inhibition of the RdRp activity indicate that the compounds of the invention are effective at inhibiting RNA synthesis by viral RdRp enzymes.

For test [2], the system named is HCV replicon (BB7 sequence) in Huh-7-Clone A cells. The test can be described thus: HCV replicon assay: ELISA of NS5A protein in replicon-containing cells (Inhibition of Viral RNA Replication). It counts as cell-based. The note with it: read-out: Replicon. From the text: Antiviral activity of representative compounds of the invention was first evaluated in a human liver-derived cell line (Huh-7-Clone A) containing the HCV replicon (BB7 sequence) (See Lohmann et al. Science. 1999, 285:110-3; Blight K J et al., Science. 2000, 290:1972-4; Pietschmann, T. et al., J. Virol. 2001, 73:1252-1264; and Lohmann, V. et al., J. Virol. 2001, 75:1437-1449). The HCV replicon is a subgenomic viral RNA that expresses the HCV proteins required for its own replication. These proteins include non-structural proteins NS3, NS4A, NS4B, NS5A and NS5B. The replicon also contains a foreign gene encoding a drug-selectable marker (neomycin phosphotransferase) to allow for G418 (neomycin) selection of cells that contain the replicon.
An ELISA (enzyme-linked immunosorbant assay) was used to determine the effect of compounds within the scope of the invention on the amount of HCV NS5A protein produced after a 72-hour incubation of the replicon-containing cells in the presence of varying concentrations of compound. COSTAR® 96-well cell culture plates were used but other known cell culture plates may be used. After incubation, media is removed from wells and the cells are fixed to the assay plate using 0.05% glutaraldehyde. The glutaraldehyde is then washed off using phosphate-buffered saline (PBS) following a 1 hour incubation and cells are blocked for non-specific antibody binding using for example SUPERBLOCK® reagent (blocking buffer) in PBS. The blocking agent is rinsed from the cells with PBS after 1 hour at 37° C. and primary monoclonal antibody is added to each well containing compound. Primary antibody is incubated for 1 hour at 37° C. and rinsed 3 times with PBS containing 0.02% TWEEN-20™ before addition of Horseradish Peroxidase (HRP) conjugated secondary antibody. HRP is incubated for 1 hour at 37° C. and rinsed several times, first with PBS/TWEEN-20™ followed by PBS alone. To quantify peroxidase activity, 3,3′,5, 5′-tetramethylbenzidine (TMB) substrate is added to the plate and after 30 minutes, the plates are read in an ELISA plate reader at an OD of 650 nm. Compound dose response was measured in an 8-point dose curve diluted serially to determine the inhibitory concentration at 50% (EC50 value). […] Ranges of 50% effective concentrations (EC50s) for representative compounds within the scope of this invention are listed in Table 1. Preferred compounds have 50% effective concentrations at about 30 μM or less, more preferred compounds have 50% effective concentrations at about 5 μM or less, and most preferred compounds have 50% effective concentrations at about 0.5 μM or less.
For orientation: Replicon systems follow genome replication, usually without infectious particles.

The mark [3] stands for this setting: purified His-tagged NS5B (BB7), carboxyl terminal 21 amino acids removed.
Setting [4] is: Hepatitis C virus, Huh-7-Clone A, NS5A ELISA, 72-hour incubation, ranges of EC50.
Setting [5] is: HCV NS5B RdRp, BB7 (genotype 1b), reported as class symbols.
[6] abbreviates: Hepatitis C virus, HCV replicon assay, ranges of EC50.
The mark [7] stands for this setting: HCV NS5B RdRp, BB7, reported as range class.
Setting [8] is: Hepatitis C virus, HCV replicon, range of EC50.
Setting [9] is: HCV NS5B RdRp, BB7, activity class.
Where [10] appears, read: Hepatitis C virus, ranges of EC50 in HCV replicon assay.

Read-outs that look alike come from different tables or passages of the source.

For the compound `CNC(=O)c1c(-c2ccc(F)cc2)oc2cc(-c3cc(CO)on3)c(OC)cc12` [Example 40, 2-(4-Fluoro-phenyl)-6-(5-hydroxymethyl-isoxazol-3-yl)-5-methoxy-benzofuran-3-carboxylic acid methylamide], the IC50 (usually the point on the concentration scale where inhibition reaches its midpoint) in test [1] (setting [3]) is ≤ 0.5 µM. Besides, the EC50 in test [2] (setting [4]) is < 1 µM.
With `CNC(=O)c1c(-c2ccc(F)cc2)oc2cc(N(C)S(C)(=O)=O)c(C3CC3)cc12` [Example 437, 5-Cyclopropyl-2-(4-fluoro-phenyl)-6-(methanesulfonyl-methyl-amino)-benzofuran-3-carboxylic acid methylamide], the IC50 in test [1] (setting [5]) is ≤ 0.5 µM. For the same compound, in test [2] (setting [6]), the EC50 was < 1 µM.
With `CNC(=O)c1c(-c2ccc(F)cc2)oc2cc(N(CCOC)S(C)(=O)=O)c(OC)cc12` [Example 240, 2-(4-Fluoro-phenyl)-6-[methanesulfonyl-(2-methoxy-ethyl)-amino]-5-methoxy-benzofuran-3-carboxylic acid methylamide], the IC50 in test [1] (setting [7]) is ≤ 0.5 µM. Besides, the EC50 in test [2] (setting [8]) is < 1 µM.
Take `CNC(=O)c1c(-c2ccc(F)cc2)oc2cc(N(Cc3ccccc3)S(C)(=O)=O)c(OC(C)C)cc12` [Example 361, 6-(Benzyl-methanesulfonyl-amino)-2-(4-fluoro-phenyl)-5-isopropoxy-benzofuran-3-carboxylic acid methylamide]: in test [1] (setting [9]), the IC50 is ≤ 0.5 µM. Moreover, the EC50 in test [2] (setting [6]) was < 1 µM.
In the case of `CCN(CC)c1cc2oc(-c3ccc(F)cc3)c(C(=O)NC)c2cc1OC(C)C` [Example 23, 6-Diethylamino-2-(4-fluoro-phenyl)-5-isopropoxy-benzofuran-3-carboxylic acid methylamide], the IC50 in test [1] (setting [3]) is ≤ 0.5 µM. Moreover, the EC50 in test [2] (setting [4]) is < 1 µM.
Take `CNC(=O)c1c(-c2ccc(F)cc2)oc2cc(-c3cc(C)n[nH]3)c(OC(C)C)cc12` [Example 247, 2-(4-Fluoro-phenyl)-5-isopropoxy-6-(5-methyl-2H-pyrazol-3-yl)-benzofuran-3-carboxylic acid methylamide]: the 50% inhibitory concentration (IC50) in test [1] (setting [7]) fell in the range of 0.5 to 5 µM. Moreover, in test [2] (setting [8]), the EC50 was < 10 µM.
For `CNC(=O)c1c(-c2ccc(F)cc2)oc2cc(S(=O)(=O)NC)c(OC(C)C)cc12` [Example 143, 2-(4-Fluoro-phenyl)-5-isopropoxy-6-methylsulfamoyl-benzofuran-3-carboxylic acid methylamide], the half-maximal inhibitory concentration (IC50) in test [1] (HCV NS5B RdRp, BB7 genotype 1b) was ≤ 0.5 µM. The EC50 in test [2] (setting [10]) was > 30 µM.
With `CNC(=O)c1c(-c2ccc(F)cc2)oc2cc(N(CCOC)S(C)(=O)=O)c(OC(C)C)cc12` [Example 193, 2-(4-Fluoro-phenyl)-5-isopropoxy-6-[methanesulfonyl-(2-methoxy-ethyl)-amino]-benzofuran-3-carboxylic acid methylamide], the IC50 in test [1] (setting [7]) was ≤ 0.5 µM. Moreover, in test [2] (setting [8]), the EC50 is < 1 µM.
Turning to `CNC(=O)c1c(-c2ccc(F)cc2)oc2cc(N(C)S(C)(=O)=O)c(OCc3nsc(NCC4CC4)n3)cc12` [Example 374, 5-[5-(Cyclopropylmethyl-amino)-[1,2,4]thiadiazol-3-ylmethoxy]-2-(4-fluoro-phenyl)-6-(methanesulfonyl-methyl-amino)-benzofuran-3-carboxylic acid methylamide], in test [1] (setting [9]), the IC50 is ≤ 0.5 µM. Further, the EC50 in test [2] (setting [6]) was < 1 µM.
Consider `CNC(=O)c1c(-c2ccc(F)cc2)oc2cc(-c3noc(C(F)(F)F)n3)c(OC(C)C)cc12` [Example 184, 2-(4-Fluoro-phenyl)-5-isopropoxy-6-(5-trifluoromethyl-[1,2,4]oxadiazol-3-yl)-benzofuran-3-carboxylic acid methylamide], for which the IC50 in test [1] (setting [7]) was in the range of 0.5 to 5 µM. For the same compound, in test [2] (setting [8]), the EC50 was < 30 µM.
With `CNC(=O)c1c(-c2ccc(F)cc2)oc2cc(C3CCN(S(C)(=O)=O)C3)c(OC)cc12` (stereo not shown) [Example 334, 2-(4-Fluoro-phenyl)-6-(1-methanesulfonyl-pyrrolidin-3-yl)-5-methoxy-benzofuran-3-carboxylic acid methylamide], the IC50 in test [1] (setting [9]) was ≤ 0.5 µM. Moreover, in test [2] (setting [6]), the EC50 is < 1 µM.
In the case of `CNC(=O)c1c(-c2ccc(F)cc2)oc2cc(S(=O)(=O)N3CCC(O)C3)c(OC(C)C)cc12` (stereo not shown) [Example 176, 2-(4-Fluoro-phenyl)-6-(3-hydroxy-pyrrolidine-1-sulfonyl)-5-isopropoxy-benzofuran-3-carboxylic acid methylamide], the IC50 in test [1] (setting [7]) was ≤ 0.5 µM. In addition, the EC50 in test [2] (setting [8]) was < 1 µM.
Consider “5-(3-Cyano-benzyloxy)-2-(4-fluoro-phenyl)-6-(methanesulfonyl-methoxymethyl-amino)-benzofuran-3-carboxylic acid methylamide [Example 447]”, for which the IC50 in test [1] (setting [5]) was ≤ 0.5 µM. In addition, the EC50 in test [2] (HCV replicon assay, ranges of EC50) is < 1 µM.
Regarding `CNC(=O)c1c(-c2ccc(F)cc2)oc2cc(N(C)S(C)(=O)=O)c(OCC(=O)c3ccc(OC)cc3)cc12` [Example 355, 2-(4-Fluoro-phenyl)-6-(methanesulfonyl-methyl-amino)-5-[2-(4-methoxy-phenyl)-2-oxo-ethoxy]-benzofuran-3-carboxylic acid methylamide], in test [1] (setting [9]), the IC50 was ≤ 0.5 µM. Also, in test [2] (setting [6]), the EC50 was < 1 µM.
Turning to `CCOc1ccc2oc(-c3ccc(Cl)s3)c(C(=O)NC)c2c1` [Example 87, 2-(5-Chloro-thiophen-2-yl)-5-ethoxy-benzofuran-3-carboxylic acid methylamide], in test [1] (setting [3]), the IC50 was ≤ 0.5 µM. In addition, in test [2] (setting [4]), the EC50 is < 10 µM.
Consider `CNC(=O)c1c(-c2ccc(F)cc2)oc2cc(N(C(C)C)S(C)(=O)=O)c(OC)cc12` [Example 221, 2-(4-Fluoro-phenyl)-6-(isopropyl-methanesulfonyl-amino)-5-methoxy-benzofuran-3-carboxylic acid methylamide], for which the IC50 in test [1] (setting [7]) is ≤ 0.5 µM. In addition, the EC50 in test [2] (setting [8]) was < 1 µM.
With `CNC(=O)c1c(-c2ccccc2)oc2cc(OC)ccc12` [Example 67, 6-Methoxy-2-phenyl-benzofuran-3-carboxylic acid methylamide], the half-inhibitory concentration (IC50) in test [1] (setting [3]) was in the range of 0.5 to 5 µM. Besides, in test [2] (setting [4]), the EC50 was < 10 µM.
For the compound `CNC(=O)c1c(-c2ccc(F)cc2)oc2cc(N(Cc3nsc(Cl)n3)S(C)(=O)=O)c(OC(C)C)cc12` [Example 234, 6-[(5-Chloro-[1,2,4]thiadiazol-3-ylmethyl)-methanesulfonyl-amino]-2-(4-fluoro-phenyl)-5-isopropoxy-benzofuran-3-carboxylic acid methylamide], the IC50 in test [1] (setting [7]) is ≤ 0.5 µM. In addition, the EC50 in test [2] (setting [8]) is < 10 µM.
For the compound `CNC(=O)c1c(-c2ccc(F)cc2)oc2cc(N3CCOCC3)c(OCc3ccc(F)cc3)cc12` [Example 167, 5-(4-Fluoro-benzyloxy)-2-(4-fluoro-phenyl)-6-morpholin-4-yl-benzofuran-3-carboxylic acid methylamide], the IC50 in test [1] (HCV NS5B RdRp, BB7 genotype 1b) lay in the range of 0.5 to 5 µM. The EC50 in test [2] (setting [10]) is < 1 µM.
Taken in the same sequence, the figures for `CNC(=O)c1c(-c2ccc(F)cc2)oc2cc(NC(C)(C)C)c(OC(C)C)cc12` [Example 148, 6-tert-Butylamino-2-(4-fluoro-phenyl)-5-isopropoxy-benzofuran-3-carboxylic acid methylamide] were ≤ 0.5 µM and < 10 µM.
